The values that follow come from patent publication EP1229026A1, “ALKOXYIMINOALKANOIC ACID DERIVATIVES” (Takeda Chemical Industries, Ltd., priority 1999, dated 2001).

The test system of assay [1] is KKA^y mice. As to the kind of experiment: Total cholesterol lowering action and plasma anti-arteriosclerosis index-increasing action in mice. Type of assay: in vivo. The note with it: 0.005% in powdery diet, four days. The procedure:
Test compound was mixed in a powdery diet (CE-2, Japan Clea) at the concentration of 0.005%, and freely given to KKA^y mice (12 weeks old, 5 mice per group), a model of obesity and type II diabetes, for four days. During this period, water was given freely. Blood was sampled from orbital venous plexus and plasma was separated and analyzed for components. Total cholesterol levels were determined using L type Wako Cholesterol (Wako Pure Chemical Industries, Ltd.). Precipitation reagent for apoB containing lipoprotein (Wako Pure Chemical Industries, Ltd.) was added to a part of the plasma to allow precipitation of non-HDL lipoprotein, and cholesterol (HDL cholesterol) in the resulting supernatant was determined. The plasma anti-arteriosclerosis index [(HDL cholesterol/total cholesterol)×100] was calculated using these cholesterol levels.
In the Table, "Total cholesterol lowering action (%)" represents the percent reduction (%) of total cholesterol level in the test compound administration group, when the total cholesterol level in the test compound non-administration group is taken as 100%. "Plasma anti-arteriosclerosis index-increasing action (%)" represents a percent increase (%) of plasma anti-arteriosclerosis index in the test compound administration group, when the plasma anti-arteriosclerosis index in the test compound non-administration group-is taken as 100%.

Assay [2] concerns KKA^y mice. The assay is described as follows: Hypoglycemic and hypolipidemic (hypotriglyceridemic) actions in mice. Format: in vivo. The following applies: four days; for Hypoglycemic action (%): percent decrease of plasma glucose vs non-administration group (100%); for Hypolipidemic action (%): percent decrease of plasma triglyceride vs non-administration group (100%). The procedure:
Test compounds were mixed in a powdery diet (CE-2, Japan Clea) at the concentration of 0.01% (compound of Example 2) or 0.005% (compound of Example 4), and freely given to KKA^y mice (11 to 12 weeks old, 5 mice per group), a model of obesity and type II diabetes, for four days. During this period, water was given freely. Blood was sampled from orbital venous plexus, and glucose and triglyceride levels in plasma separated from blood were determined enzymatically using L type Wako Glu2 (Wako Pure Chemical Industries, Ltd.) or L type Wako TG•H (Wako Pure Chemical Industries, Ltd.), respectively.

Assay [3] concerns the target T1, PPARγ-RXRα heterodimer (Homo sapiens, UniProt P37231).
T1 construct: 1.4 kb DNA fragment containing PPARγ gene was recovered from the gel; expressed in transfected cells; host or cells: CHO-K1
T1 sequence (P37231 1-477 isoform P37231-2): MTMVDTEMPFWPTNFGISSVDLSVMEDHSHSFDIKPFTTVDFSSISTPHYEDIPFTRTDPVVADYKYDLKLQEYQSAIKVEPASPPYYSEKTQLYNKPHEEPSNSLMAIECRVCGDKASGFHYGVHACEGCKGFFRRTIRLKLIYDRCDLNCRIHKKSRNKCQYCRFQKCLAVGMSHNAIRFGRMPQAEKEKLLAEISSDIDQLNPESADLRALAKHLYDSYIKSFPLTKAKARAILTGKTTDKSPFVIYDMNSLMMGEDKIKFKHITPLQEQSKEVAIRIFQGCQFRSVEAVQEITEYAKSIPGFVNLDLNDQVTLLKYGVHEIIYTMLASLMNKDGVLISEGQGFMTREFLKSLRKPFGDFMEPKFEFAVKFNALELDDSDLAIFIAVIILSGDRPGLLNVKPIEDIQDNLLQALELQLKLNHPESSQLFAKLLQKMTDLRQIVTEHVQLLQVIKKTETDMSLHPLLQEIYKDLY
T1 sequence (P19793 1-462 partner): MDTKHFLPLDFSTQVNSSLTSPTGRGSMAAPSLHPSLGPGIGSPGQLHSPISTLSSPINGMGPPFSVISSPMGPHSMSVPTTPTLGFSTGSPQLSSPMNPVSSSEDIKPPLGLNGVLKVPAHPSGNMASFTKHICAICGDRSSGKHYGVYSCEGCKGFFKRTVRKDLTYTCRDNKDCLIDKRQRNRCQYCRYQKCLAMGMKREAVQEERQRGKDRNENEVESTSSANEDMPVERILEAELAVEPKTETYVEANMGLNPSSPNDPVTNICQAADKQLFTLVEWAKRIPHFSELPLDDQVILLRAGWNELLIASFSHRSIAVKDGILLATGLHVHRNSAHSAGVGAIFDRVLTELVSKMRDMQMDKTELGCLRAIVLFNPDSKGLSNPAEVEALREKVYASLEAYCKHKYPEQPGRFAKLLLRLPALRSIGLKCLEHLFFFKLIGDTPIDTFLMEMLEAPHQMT
The assay is described as follows: PPARγ-RXRα heterodimer ligand activity (luciferase reporter in PPARγ:RXRα:4ERPP/CHO-K1 cells). Format: cell-based. The following applies: concentration for 50% of the maximum fold induction of luciferase activity, 48 hours. The procedure: A PPARγ:RXRα:4ERPP/CHO-K1 cells obtained in Reference Example 5 to be described later were cultured in HAM F12 medium (produced by NISSUI PHARMACEUTICAL CO., LTD.) containing 10% fetal bovine serum (produced by Life Technologies, Inc., USA) and then inoculated to a 96-well white plate (produced by Corning Costar Corporation, USA) at the density of 2×10^4 cells/well, and cultured in a CO2 gas incubator at 37°C overnight.
After washing the 96 well white plate with PBS (phosphate-buffered saline), 90 µl of HAM F12 medium containing 0.1% fatty acid-free bovine serum albumin (BSA) and 10 µl of test compound were added, which was followed by culture in a CO2 gas incubator at 37°C for 48 hours. After removing the medium, 40 µl of PIKKAGENE 7.5 (produced by Wako Pure Chemical Industries, Ltd.) was added. After stirring, the luciferase activity was determined using Lumistar (produced by BMG Labtechnologies GmbH, Germany).
A fold induction was calculated based on the luciferase activity of each test compound where the luciferase activity in the test compound non-administration group was taken as 1. The values of the test compound concentration and the fold induction were analyzed using PRISM 2.01 (produced by GraphPad Software Inc., USA) to calculate the EC50 values, the effective concentration of the test compound for 50% of the maximum fold induction. […]

Consider `Cc1oc(-c2ccccc2)nc1COc1ccc(CO/N=C(\CCC(=O)O)c2ccccc2)cn1` [Example 4, (E)-4-[6-(5-methyl-2-phenyl-4-oxazolylmethoxy)-3-pyridylmethoxyimino]-4-phenylbutyric acid], for which the “Plasma anti-arteriosclerosis index-increasing action (%)” value in assay [1] (percent increase of index [(HDL cholesterol/total cholesterol)×100] vs non-administration group (100%)) was 39%. Also, the “Total cholesterol lowering action (%)” value in assay [1] (percent reduction of total cholesterol level vs non-administration group (100%)) is 22%. Besides, in assay [2] (0.005% in powdery diet), the “Hypoglycemic action (%)” value is 54% and the “Hypolipidemic action (%)” value is given as 90%. Further, the EC50 in assay [3] is 1.4 nM.

Turning to `Cc1oc(-c2ccccc2)nc1COc1ccc2cc(CO/N=C(\CCC(=O)O)c3ccccc3)ccc2c1` [Example 2, (E)-4-[6-(5-methyl-2-phenyl-4-oxazolylmethoxy)-2-naphthylmethoxyimino]-4-phenylbutyric acid], in assay [2] (0.01% in powdery diet), the “Hypoglycemic action (%)” value worked out at 30% and the “Hypolipidemic action (%)” value came to 22%. In assay [3], the EC50 is 1600 nM.

The EC50 is the midpoint of the concentration-response curve. A lower EC50 goes with greater potency.
